{
  "source": "patent US7947869B2",
  "about": "“Methods for inducing cotton embryogenic callus” (Monsanto Technology LLC, priority 2007, dated 2011)",
  "format_in_all_cases": "cell-based, cotton (cv. Coker 130)",
  "key": {"[1]": {"tested_on": "cotton hypocotyl explants", "experiment": "Effect of ACC during callus induction or embryogenic callus induction step", "protocol": "An ethylene precursor, 1-aminocyclopropane-1-carboxylic acid (ACC) was added at the step of undifferentiated callus formation, and removed prior to embryogenesis, to speed up embryogenic callus formation.\nThree studies were performed to define the effect of ACC on enhancing embryogenic callus formation. In the first experiment summarized in Table 19, hypocotyl explants were placed on UMSEL medium containing different concentrations of ACC (Treatments 2-6), or containing no ACC (treatment 7). The plates were unwrapped and placed in two separate boxes (Treatments 2-6 in one box and Treatments 7-12 in another), and cultured at 28° C. with a photoperiod of 16 hr light/8 hr darkness. After four weeks of callus induction, the calli were transferred to UMO medium without ACC (Treatments 2-6), or to UMO plus different concentrations of ACC (Treatments 8-12) for embryogenic callus induction. The plates were wrapped with PARAFILM at this stage."}, "[2]": {"tested_on": "Agrobacterium-inoculated cotton hypocotyl explants", "experiment": "Effect of ACC on embryogenic callus from transformed tissue (pMON15722, kanamycin selection)", "protocol": "Addition of ACC produced a similar enhancing effect on producing embryogenic callus from transformed tissue. The hypocotyl explants were inoculated with Agrobacterium containing a plant transformation vector pMON15722 having an expression unit conferring kanamycin tolerance. The explants were pre-soaked in 2-hr in MSO glucose medium (Table 3) before inoculation. After 2 days of co-culture at about 24° C., the inoculated hypocotyl pieces were placed on WPSEL medium containing 45 mg/L of kanamycin for 4 weeks for callus induction. After callus induction, the explants were again transferred to WPSEL medium for another 4 weeks. Different concentrations of ACC were incorporated in the medium at this step."}, "[3]": {"tested_on": "embryogenic cotton callus", "experiment": "Effect of brassinolide in TRP+ medium on production of embryos from embryogenic cotton callus", "protocol": "A brassinosteroid plant growth regulator was used to enhance cotton embryo formation. Brassinolide (i.e. 24-epibrassinolide; Super-Grow, Montreal, Calif.), at a concentration from 2 to 100 μM was added to TRP+ medium (Table 9). Embryogenic callus from the UMO medium (Table 8) was then cultured on TRP+ medium containing Brassinolide. […] Besides an increase in the overall production of embryos, many of the embryos produced from the brassinolide treatment were 5-6 mm long heart shaped embryos (more developed), whereas there were none at this stage in the control treatment. […]"}, "[4]": {"tested_on": "embryogenic cotton callus", "experiment": "Effect of brassinolide on embryo production at 9% and 21% O2 levels", "protocol": "When embryogenic callus was placed on brassinolide containing TRP+ medium (Table 9) at either 9% or 21% O2, more embryos were produced in the brassinolide treatments at 9% than at 21% O2. Lower level of 10 μM brassinolide gave the greatest response at 9% O2 but 100 μM level of brassinolide was more useful in 21% O2. […] Different levels of O2 were created by using a PRO-OX 110 oxygen control according to manufacturer's instructions (BioSpherix, Redfield, N.Y.) in a growth chamber (e.g. Percival Scientific, Inc., Perry, Iowa). Results in Table 12 indicate that brassinolide promotes the growth and development of embryos from cotton embryogenic callus."}, "[5]": {"details": "ACC 0.01 mM at callus induction step (UMSEL), removed on UMO"}, "[6]": {"details": "ACC 0.1 mM at callus induction step (UMSEL)"}, "[7]": {"details": "ACC 0.5 mM at callus induction step (UMSEL)"}, "[8]": {"details": "ACC 1 mM at callus induction step (UMSEL)"}, "[9]": {"details": "ACC 5 mM at callus induction step (UMSEL)"}, "[10]": {"details": "2 μM brassinolide in TRP+ medium"}, "[11]": {"details": "5 μM brassinolide in TRP+ medium"}, "[12]": {"details": "10 μM brassinolide in TRP+ medium"}, "[13]": {"details": "15 μM brassinolide in TRP+ medium"}},
  "data": [
    {"compound": "NC1(C(=O)O)CC1", "note": "[ACC, 1-aminocyclopropane-1-carboxylic acid]", "values": [
      {"measurement": "% EC at 7 week", "setting": "[1]; [5]", "result": 80, "unit": "%"},
      {"measurement": "% EC at 9 week", "setting": "[1]; [5]", "result": 94, "unit": "%"},
      {"measurement": "% EC at 9 week", "setting": "[1]; ACC 0.01 mM at embryogenic callus induction step (UMO)", "result": 35, "unit": "%"},
      {"measurement": "% EC at 7 week", "setting": "[1]; [6]", "result": 50, "unit": "%"},
      {"measurement": "% EC at 9 week", "setting": "[1]; [6]", "result": 90, "unit": "%"},
      {"measurement": "% EC at 9 week", "setting": "[1]; ACC 0.1 mM at embryogenic callus induction step (UMO)", "result": 5, "unit": "%"},
      {"measurement": "% EC at 7 week", "setting": "[1]; [7]", "result": 58, "unit": "%"},
      {"measurement": "% EC at 9 week", "setting": "[1]; [7]", "result": 88, "unit": "%"},
      {"measurement": "% EC at 9 week", "setting": "[1]; ACC 0.5 mM at embryogenic callus induction step (UMO)", "result": 10, "unit": "%"},
      {"measurement": "% EC at 7 week", "setting": "[1]; [8]", "result": 28, "unit": "%"},
      {"measurement": "% EC at 9 week", "setting": "[1]; [8]", "result": 62, "unit": "%"},
      {"measurement": "% EC at 9 week", "setting": "[1]; ACC 1 mM at embryogenic callus induction step (UMO)", "result": 10, "unit": "%"},
      {"measurement": "% EC at 9 week", "setting": "[1]; ACC 3 mM at embryogenic callus induction step (UMO)", "result": 0, "unit": "%"},
      {"measurement": "% EC at 7 week", "setting": "[1]; [9]", "result": 0, "unit": "%"},
      {"measurement": "% EC at 9 week", "setting": "[1]; [9]", "result": 0, "unit": "%"},
      {"measurement": "% Pieces w/ EC after 6 weeks on UMO medium with Kanamycin", "setting": "[2]; ACC 10 μM during non-embryogenic callus growth on WPSEL", "result": 18.4, "unit": "%"},
      {"measurement": "% Pieces w/ EC after 6 weeks on UMO medium with Kanamycin", "setting": "[2]; ACC 30 μM during non-embryogenic callus growth on WPSEL", "result": 22.1, "unit": "%"},
      {"measurement": "% Pieces w/ EC after 6 weeks on UMO medium with Kanamycin", "setting": "[2]; ACC 60 μM during non-embryogenic callus growth on WPSEL", "result": 21.6, "unit": "%"},
      {"measurement": "% Pieces w/ EC after 6 weeks on UMO medium with Kanamycin", "setting": "[2]; ACC 100 μM during non-embryogenic callus growth on WPSEL", "result": 26.5, "unit": "%"},
      {"measurement": "% Pieces w/ EC after 6 weeks on UMO medium with Kanamycin", "setting": "[2]; ACC 150 μM during non-embryogenic callus growth on WPSEL", "result": 44.0, "unit": "%"}
    ]},
    {"compound": "CC(C)[C@@H](C)[C@@H](O)[C@H](O)[C@@H](C)[C@H]1CC[C@H]2[C@@H]3COC(=O)[C@H]4C[C@H](O)[C@H](O)C[C@]4(C)[C@H]3CC[C@]12C", "note": "[Brassinolide, 24-epibrassinolide]", "values": [
      {"measurement": "Embryo stages: 2-3 mm globules", "setting": "[3]; [10]", "result": 3},
      {"measurement": "Embryo stages: 5-6 mm heart shaped", "setting": "[3]; [10]", "result": 0},
      {"measurement": "Total embryos", "setting": "[3]; [10]", "result": 3},
      {"measurement": "Embryo stages: 2-3 mm globules", "setting": "[3]; [11]", "result": 10},
      {"measurement": "Embryo stages: 5-6 mm heart shaped", "setting": "[3]; [11]", "result": 8},
      {"measurement": "Total embryos", "setting": "[3]; [11]", "result": 18},
      {"measurement": "Embryo stages: 2-3 mm globules", "setting": "[3]; [12]", "result": 6},
      {"measurement": "Embryo stages: 5-6 mm heart shaped", "setting": "[3]; [12]", "result": 11},
      {"measurement": "Total embryos", "setting": "[3]; [12]", "result": 17},
      {"measurement": "Embryo stages: 2-3 mm globules", "setting": "[3]; [13]", "result": 6},
      {"measurement": "Embryo stages: 5-6 mm heart shaped", "setting": "[3]; [13]", "result": 9},
      {"measurement": "Total embryos", "setting": "[3]; [13]", "result": 15},
      {"measurement": "Number of Embryos Produced", "setting": "[4]; 10 μM brassinolide, 9% O2, 4 weeks", "result": 18},
      {"measurement": "Number of Embryos Produced", "setting": "[4]; 10 μM brassinolide, 9% O2, 7 weeks", "result": 30},
      {"measurement": "Number of Embryos Produced", "setting": "[4]; 10 μM brassinolide, 9% O2, 9 weeks", "result": 48},
      {"measurement": "Number of Embryos Produced", "setting": "[4]; 10 μM brassinolide, 21% O2, 4 weeks", "result": 21},
      {"measurement": "Number of Embryos Produced", "setting": "[4]; 10 μM brassinolide, 21% O2, 7 weeks", "result": 28},
      {"measurement": "Number of Embryos Produced", "setting": "[4]; 10 μM brassinolide, 21% O2, 9 weeks", "result": 21},
      {"measurement": "Number of Embryos Produced", "setting": "[4]; 50 μM brassinolide, 9% O2, 4 weeks", "result": 8},
      {"measurement": "Number of Embryos Produced", "setting": "[4]; 50 μM brassinolide, 9% O2, 7 weeks", "result": 12},
      {"measurement": "Number of Embryos Produced", "setting": "[4]; 50 μM brassinolide, 9% O2, 9 weeks", "result": 35},
      {"measurement": "Number of Embryos Produced", "setting": "[4]; 50 μM brassinolide, 21% O2, 4 weeks", "result": 10},
      {"measurement": "Number of Embryos Produced", "setting": "[4]; 50 μM brassinolide, 21% O2, 7 weeks", "result": 8},
      {"measurement": "Number of Embryos Produced", "setting": "[4]; 50 μM brassinolide, 21% O2, 9 weeks", "result": 11},
      {"measurement": "Number of Embryos Produced", "setting": "[4]; 100 μM brassinolide, 9% O2, 4 weeks", "result": 1},
      {"measurement": "Number of Embryos Produced", "setting": "[4]; 100 μM brassinolide, 9% O2, 7 weeks", "result": 9},
      {"measurement": "Number of Embryos Produced", "setting": "[4]; 100 μM brassinolide, 9% O2, 9 weeks", "result": 21},
      {"measurement": "Number of Embryos Produced", "setting": "[4]; 100 μM brassinolide, 21% O2, 4 weeks", "result": 6},
      {"measurement": "Number of Embryos Produced", "setting": "[4]; 100 μM brassinolide, 21% O2, 7 weeks", "result": 9},
      {"measurement": "Number of Embryos Produced", "setting": "[4]; 100 μM brassinolide, 21% O2, 9 weeks", "result": 33},
      {"measurement": "Brassinolide level giving the greatest response", "setting": "[4]; 9% O2", "result": 10, "unit": "µM"},
      {"measurement": "Brassinolide level more useful", "setting": "[4]; 21% O2", "result": 100, "unit": "µM"}
    ]}
  ]
}
